The term pIC50 denotes the negative decadic logarithm of the IC50, by convention in mol/L. High values mean a low IC50, low ones a high IC50.

pIC50: −log10 of the molar value. Where a name gives a salt, the structure may show the parent alone.

This assay is filed under the species Mus musculus. Description: Effect on mouse allogenic mixed lymphocyte reaction (MLR). The assay is classed as functional.
Take `CCCCCCCCc1ccc(CCC(N)CO)cc1` (configuration not stated): the pIC50 is 7.96.
The compound `CCCCCCCCCCCCCCCCCCC(N)CO` (configuration not stated) had a negative logarithm of the IC50 (pIC50) of 6.85.
`CCCCCCC(=O)CCCCCC/C=C/C[C@@H](O)[C@H](O)[C@@](N)(CO)C(=O)O` [MYRIOCIN] showed a pIC50 of 8.10.
For the compound `CCCCCCCCCCCCCCCCCCN` [OCTADECYLAMINE], the pIC50 is < 5.00.
Take `CCCCCCCCCCCCCCCCCCC(CO)CO`: the pIC50 is < 5.00.
The compound `CCCCCCCCc1ccc(CCC(N)(CO)CO)cc1` [FINGOLIMOD HYDROCHLORIDE] had a pIC50 of 8.21.
`CCCCCCCCCCCCCCCCCCC(N)(CO)CO` had a pIC50 of 7.92.

The record behind these values is ChEMBL document CHEMBL1128796, “2-Substituted 2-aminoethanol: Minimum essential structure for immunosuppressive activity of ISP-I (Myriocin)” (Bioorg Med Chem Lett, 1995).
